The values below are quoted from earlier work in US5030442A (priority 1989, dated 1991).

Structures are written as SMILES. Entries after “also recorded” stand apart in the source; their conditions may differ.

The conditions of the data set: topical form, initial clinical studies.

On to `Nc1cc(N2CCCCC2)nc(N)[n+]1[O-]` [minoxidil], for which the “hair growth response (in words)” value is “reversal of male pattern baldness is most favorable in younger men, and where recent hair loss has occurred; also recorded: new hair growth is observed in a significant percentage of older men and/or where in cases of long-term baldness”.
